Target: T1, KSP(367H) (Homo sapiens, UniProt P52732)
T1 construct: Add 18.75 μl of 4 μM stock nucleotide-free KSP(367H)
T1 sequence (P52732 1-367 limits assumed): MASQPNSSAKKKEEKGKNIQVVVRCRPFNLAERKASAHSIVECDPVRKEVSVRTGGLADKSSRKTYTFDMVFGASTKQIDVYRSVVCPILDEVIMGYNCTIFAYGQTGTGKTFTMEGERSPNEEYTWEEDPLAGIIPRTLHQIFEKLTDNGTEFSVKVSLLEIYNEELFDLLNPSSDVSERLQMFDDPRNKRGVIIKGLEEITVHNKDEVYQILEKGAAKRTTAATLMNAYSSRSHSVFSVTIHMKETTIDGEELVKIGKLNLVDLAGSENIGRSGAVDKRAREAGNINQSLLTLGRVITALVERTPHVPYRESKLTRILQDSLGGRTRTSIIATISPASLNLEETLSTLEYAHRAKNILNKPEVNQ
Assay: Fluorescence of Trp127 of KSP -/+ inhibitors (in vitro binding assay for the novel KSP binding site)
Procedure: The binding of a ligand to the novel binding site of the instant invention and the formation of the novel binding pocket as a result can als6 be indirectly assessed by spectroscopically determining the shift in the fluorescence of the amino acid 127 tryptophan residue. Thus it has been discovered that the fluorescent emission of Trp127 is modulated when KSP is treated with one of the inhibitors described above in the presence of a nucleotide or nucleotides.
A further embodiment of the instant invention is an in vitro assay for the determination of binding of a test compound to the novel KSP binding site described herein. The assay comprises the steps of: • 1. contacting KSP with the test compound and a nucleotide and measuring the fluorescence of the mixture at the peak emission wavelength for Trp127 in KSP; • 2. contacting KSP with a nucleotide and measuring the fluorescence of the mixture at the peak emission wavelength for Trp127 in KSP; and • 3. comparing the fluorescence of the mixture of KSP, the test compound and the nucleotide with the fluorescence of the mixture of KSP with the nucleotide alone.
In another embodiment of the in vitro fluorescence assay the nucleotide is selected from ADP and AMPPNP (a non-hydrolysable analog of ATP, adenosine 5′-(β,γ-imido)triphosphate tetralithium salt hydrate).
• 2× kinesin buffer: 160 mM K-Hepes, 2 mM MgCl2, 2 mM EGTA, 2 mM DTT (added fresh daily), and 100 mM KCl, pH 6.8. • Nucleotide: nucleotide is resuspended to 200 mM in 50 mM K-Hepes (pH 6.8). • Nucleotide is diluted 1:1 with 200 MM MgCl2 to a stock concentration of 100 mM of 1:1 nucleotide:MgCl2. • Cuvette volume=300 μl Methods • 1) Add 281 μl of 1× kinesin buffer, ±nucleotide, and H2O (Nucleotide=none, 1 mM AMPPNP, or 1 mM ADP (final concentration)). • 2) Add 18.75 μl of 4 μM stock nucleotide-free KSP(367H). • 3) Add compound sequentially from DMSO stock (with all the volume of all additions ≦0.6 μl). • 4) Measure fluorescence after each addition (starting with buffer only). • 5) Example titration for Compound 8-1 with KSP(367H)ADP: 281 μl of 1× kinesin buffer+1 mM ADP: • add 250 nM KSP (18.75 μl of 4 uM nucleotide-free stock) • add 1 nM Compound 8-1 (1 nMf) (addition of 0.3 μl of 0.001 mM stock) • add 2 nM Compound 8-1 (3 nMf) (addition of 0.6 μl of 0.001 mM stock) • add 4 nM Compound 8-1 (7 nMf) (addition of 0.12 μl of 0.01 mM stock) • add 3 nM Compound 8-1 (10 nMf) (addition of 0.09 μl of 0.01 mM stock) • add 20 nM Compound 8-1 (30 nMf) (addition of 0.6 μl of 0.01 mM stock) • add 40 nM Compound 8-1 (70 nMf) (addition of 0.12 μl of 0.1 mM stock) • add 30 nM Compound 8-1 (100 nMf) (addition of 0.09 μl of 0.1 mM stock) • add 200 nM Compound 8-1 (300 nMf) (addition of 0.6 μl of 0.1 mM stock) • add 400 nM Compound 8-1 (700 nMf) (addition of 0.12 μl of 1 mM stock) • add 300 nM Compound 8-1 (1000 nMf) (addition of 0.09 μl of 1 mM stock) • add 2000 nM Compound 8-1 (3000 nMf) (addition of 0.6 μl of 1 mM stock). • 6) After each addition, measure steady-state fluorescence under the following conditions: • λex=[…], λem=342-346 nm, band width=3 nm ex/3 nm em, wavelength increment=0.5 nm, integration time=2 s. • 7) Repeat the same titration series: • in the absence of KSP (to determine compound-related background), and in the absence of KSP, but in the presence of 1 μM L-tryptophan (to determine compound-related effects on the amino acid itself). Calculations
At the peak emission wavelength for W127 in KSP(367H) (=344 nm) measure the compound emission in kinesin buffer as a function of [compound]; measure fluorescence of L-tryptophan as a function of [compound]; measure fluorescence of KSP(367H) as a function of [compound]; correct KSP(367H) fluorescence for its decrease over time (due to losses of protein to the cuvette); subtract compound emission from L-tryptophan emission; subtract compound emission from KSP(367H) emission. […]

[1] = in the absence of the nucleotide
[2] = in the presence of ADP or AMPPNP

| SMILES | fluorescence of Trp127 [1] | fluorescence of Trp127 [2] |
| --- | --- | --- |
| CCOC(=O)C1=C(C)NC(=S)NC1c1cccc(O)c1 (single isomer, unassigned; (+)) [Compound 5-2b, (+)-4-(3-Hydroxyphenyl)-6-methyl-2-thioxo-1,2,3,4-tetrahydro-4H-pyrimidin-5-carboxylic acid ethyl ester, reference compound] | does not cause a decrease | dose dependent decrease |
| CC(=O)N1N=C(c2ccccc2Cl)CC1c1cccc(O)c1 (stereo not drawn) [Compound 1-7, 3-[1-acetyl-3-(2-chlorophenyl)-4,5-dihydro-1H-pyrazol-5-yl]phenol] | does not cause a decrease | dose dependent decrease |
| CCC(c1nc2sccc2c(=O)n1Cc1ccccc1)N(CCN(C)C)Cc1ccc(Br)cc1 (stereo not drawn) [Compound 8-1, 3-benzyl-2-(1-{(4-bromobenzyl)[2-(dimethylamino)ethyl]amino}propyl)thieno[2,3-d]pyrimidin-4(3H)-one] | does not cause a decrease | dose dependent decrease |

— US20060134767A1, “Mitotic kinesin binding site” (priority 2002, published 2006)
